Laboratory results published in US20130018091A1, “TREATMENT OF ALLODYNIA AND HYPERALGESIA” (priority 2009, published 2013).

Key:
[1] = system: Sprague-Dawley rats; test: Chronic sciatic nerve ligation model in rats (mechanical allodynia, Von Frey); type: in vivo, rat; conditions: 30.0 mg/kg p.o., n=8/group
Text: Following a 10-day post-operative period after partial ligation of the sciatic nerve as described by Seltzer et al, each of the operated Sprague-Dawley rats (obtained from Charles River, Inc.) will be tested for the development of consistent, mechanical allodynia (pain response to a non-noxious stimulus). Animals are placed in a bottomless plexiglass box placed on a stainless steel platform with ¼″ holes. After at least a 30-min conditioning period in which rats are allowed to sit quietly in the cages on the platform, a baseline mechanical sensitivity is determined which represents the pre-drug 50% paw withdrawal threshold. […] The 50% threshold for foot withdrawal is determined by using the “Up and Down” step procedure. […] If the pressure of the largest diameter fiber raises the foot without a withdrawal, it is considered as “no response.” and recorded as >300 g on the data sheet.
Following the measurement of the initial predrug responses, the rats will be given an p.o. injection of tonabersat (n=8 rats per dose level). The mechanical threshold will then be assessed at 1, 2, 4, 6, 8, and 24 hrs post-injection to determine the duration of action of the test compound and the TPE in this model of mechanical allodynia. […]
The withdrawal threshold for each animal determined at each time point is computed using the “xoxox” step procedure originally developed by Dixon (1980). […]

[2] = system: CF1 mouse; test: Formalin-induced nociception model in mice (hyperalgesia and inflammation); type: in vivo; conditions: 45.0 mg/kg p.o., n=8/group; for Drug-treated AUC (duration of licking): formalin 1 hour after dosing
Description: An injection of 0.5% formalin is made into the planter region of a CF1 mouse (obtained from Charles River, Inc.) right hind paw. This elicits a distinct biphasic behavioral profile characterized by the mouse licking the affected paw. Immediately following the injection the mouse licks the paw for about 10 minutes. This is phase 1 (acute) and is followed by a brief latent period where there is little behavioral activity. A more prolonged period of about 20 to 30 minutes of paw licking ensues which constitutes phase 2 (inflammatory).
Prior to the administration of the test drug or vehicle each mouse undergoes a 15-minute conditioning period in one of several 6″ tall plexiglass observation tubes (4″ diameter) that are placed in front of a mirror. Following the conditioning period, doses of tonabersat will be administered p.o. and the mouse returned to its home tube. At a time determined to correlate with peak plasma levels (1 hour), formalin will be injected sub-dermally (20 ul; 27 gauge needle) into the plantar surface of the right hind foot. The bevel of the needle is placed facing down toward the skin surface. Following injection of the formalin each animal is observed for the first 2 minutes of each 5 minute epoch for a total of 45 minutes. The cumulative length of licking for each 2 minute time period is measured. An animal receiving the requisite volume of vehicle is alternated with each mouse given the test drug. Animals are euthanized following the conclusion of the experiment. An n of 8 mice per group will be employed in this study.
Area under the curve (AUC) determination is made using the GraphPad Prism Version 3.03. Total AUC is calculated for both the test and control groups for both the acute and inflammatory phases. The AUC for individual animals for each phase is also calculated and converted to percentage of total AUC of control. The average percentages and SEM for both the drug treated and control are calculated and tested for significant difference.

[3] = system: Sprague-Dawley rats; conditions: general statement, no dose given; cited from earlier work

Compound | % Control (threshold for foot withdrawal relative to predrug mean) ([1]; at time of peak effect 6.0 h, p = <0.05) | Time of peak effect ([1]; threshold for foot withdrawal) | Drug-treated AUC (duration of licking) ([2]; Acute Phase, Control AUC 185.8) | % Inhibition of Control ([2]; Acute Phase, p = >0.05) | Drug-treated AUC (duration of licking) ([2]; Inflammatory Phase, Control AUC 446.7) | % Inhibition of Control ([2]; Inflammatory Phase, p = <0.05) | Activity in sciatic nerve ligation model [3]
CC(=O)c1ccc2c(c1)[C@H](NC(=O)c1ccc(F)c(Cl)c1)[C@H](O)C(C)(C)O2 [Tonabersat, cis-6-acetyl-4-(S)-(3-chloro-4-fluorobenzoylamino)-3,4-dihydro-2,2-dimethyl-2H-1-benzopyran-3-(S)-ol] | 237.0% | 6.0 h | 116.4 | 37.3% | 135.8 | 69.6% | –
NCC1(CC(=O)O)CCCCC1 [gabapentin] | – | – | – | – | – | – | active
CC(C)C[C@H](CN)CC(=O)O [pregabalin] | – | – | – | – | – | – | active
